This is an account of results in patent EP0326329B1, “Quinazoline derivatives useful as insecticides” (Dow AgroSciences LLC, priority 1988, dated 1989).

Each structure is given as a SMILES string.

In the first data set the test system is Pseudoperonospora cubensis (downy mildew). Kind of data set: Greenhouse Test 1, foliar spray fungicide screen (DOWN MDEW), host squash. Format: in vivo. The note with it: disease control rating, 400 ppm (+++ at 100 ppm).
As for `CC(C)(C)c1ccc(CCOc2ncnc3ccc(Cl)cc23)cc1` [Example 174, 6-chloro-4-[2-[4-(t-butyl)phenyl]ethoxy]quinazoline], the “DOWN MDEW” value was “++ (++ = 90-100% control at 400 ppm)”.

With `CC(C)(C)c1ccc(CCOc2ncnc3ccc(Br)cc23)cc1` [Example 175, 6-bromo-4-[2-[4-(t-butyl)phenyl]ethoxy]quinazoline], the “DOWN MDEW” value was “- (- = 0-19% control at 400 ppm)”.

The next data set concerns melon aphids (Aphis gossypii Glover). Kind of data set: Mite/insect screen, sprayed squash cotyledons (MA). Format: in vivo. The note with it: Aphis gossypii, percent mortality; spray rate 200 ppm; read-out: MA RESULTS %. In short, it runs like this: (§1)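 Acetone/alcohol (50:50) + emulsifier blends 23 g/L and 13 g/L; water dilution to test concs. Spray both leaf surfaces to runoff, dry 1 h. For armyworm, 2 excised uninfested leaves into Petri dish with larvae. Readout: % mortality, phytotoxicity.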
Regarding `CC(C)(C)c1ccc(CCOc2ncnc3ccc(Cl)cc23)cc1` [Example 174, 6-chloro-4-[2-[4-(t-butyl)phenyl]ethoxy]quinazoline], the mortality at 200 ppm came to 0%.

For `CC(C)(C)c1ccc(CCOc2ncnc3ccc(Br)cc23)cc1` [Example 175, 6-bromo-4-[2-[4-(t-butyl)phenyl]ethoxy]quinazoline], the mortality at 200 ppm was found to be 80%.

Staying with this data set, now noted: Aphis gossypii, percent mortality; spray rate 400 ppm; read-out: MA RESULTS %.
With `CC(C)(C)c1ccc(CCOc2ncnc3ccc(Cl)cc23)cc1` [Example 174, 6-chloro-4-[2-[4-(t-butyl)phenyl]ethoxy]quinazoline], the mortality at 400 ppm came to 0%.

For `CC(C)(C)c1ccc(CCOc2ncnc3ccc(Br)cc23)cc1` [Example 175, 6-bromo-4-[2-[4-(t-butyl)phenyl]ethoxy]quinazoline], the mortality at 400 ppm is 0%.

Still in this data set, the particulars now being: percent mortality; spray rate 400 ppm.
For `CC(C)(C)c1ccc(CCOc2ncnc3ccc(Br)cc23)cc1` [Example 175, 6-bromo-4-[2-[4-(t-butyl)phenyl]ethoxy]quinazoline], the “MA RESULTS %” value is reported as 0%.

In the next data set the test system is Southern corn rootworm (Diabrotica undecimpuctata howardi Barber). Kind of data set: Mite/insect screen, soil treatment (CRW). The class given is in vivo. The note with it: Diabrotica; percent mortality; soil treatment, CRW rate 12.00 ppm; read-out: CRW RESULTS %. In short, it runs like this: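 Compounds dissolved in acetone/alcohol (50:50) with Toximul R/S emulsifiers, diluted with water. Soil (15 g, with presoaked corn seed) treated with 1 mL test solution, dried 6–12 h, then five 2–3 instar larvae added; held at 23°C. Percent mortality and phytotoxicity scored after standard exposure periods.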
`CC(C)(C)c1ccc(CCOc2ncnc3ccc(Cl)cc23)cc1` [Example 174, 6-chloro-4-[2-[4-(t-butyl)phenyl]ethoxy]quinazoline]: the mortality at 12 ppm is 0%.

As to `CC(C)(C)c1ccc(CCOc2ncnc3ccc(Br)cc23)cc1` [Example 175, 6-bromo-4-[2-[4-(t-butyl)phenyl]ethoxy]quinazoline], the mortality at 12 ppm was 0%.

Still in this data set, the particulars now being: Diabrotica; percent mortality; soil treatment, CRW rate 24.00 ppm; read-out: CRW RESULTS %.
Consider `CC(C)(C)c1ccc(CCOc2ncnc3ccc(Cl)cc23)cc1` [Example 174, 6-chloro-4-[2-[4-(t-butyl)phenyl]ethoxy]quinazoline], for which the mortality at 24 ppm was found to be 100%.

As for `CC(C)(C)c1ccc(CCOc2ncnc3ccc(Br)cc23)cc1` [Example 175, 6-bromo-4-[2-[4-(t-butyl)phenyl]ethoxy]quinazoline], the mortality at 24 ppm is 0%.

The same data set, now with this note: percent mortality; soil treatment, CRW rate 24.00 ppm.
As to `CC(C)(C)c1ccc(CCOc2ncnc3ccc(Br)cc23)cc1` [Example 175, 6-bromo-4-[2-[4-(t-butyl)phenyl]ethoxy]quinazoline], the “CRW RESULTS %” value turned out to be 0%.

The subject of the next data set is southern armyworm (Spodopetra eridania Cramer). The data set can be described thus: Mite/insect screen, sprayed squash leaves (SAW). Conditions: Spodoptera eridania, percent mortality; spray rate 200 ppm; read-out: SAW RESULTS %. The class given is in vivo. In short, it runs like this: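 Compounds were dissolved in 50:50 acetone/alcohol containing sulfonate/nonionic emulsifier blends (23 g and 13 g per liter) and diluted with water to test concentrations. Leaves were sprayed on both surfaces to runoff and dried for one hour. Percent mortality and phytotoxicity were scored after standard exposure periods.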
Take `CC(C)(C)c1ccc(CCOc2ncnc3ccc(Cl)cc23)cc1` [Example 174, 6-chloro-4-[2-[4-(t-butyl)phenyl]ethoxy]quinazoline]: the mortality at 200 ppm is 0%.

`CC(C)(C)c1ccc(CCOc2ncnc3ccc(Br)cc23)cc1` [Example 175, 6-bromo-4-[2-[4-(t-butyl)phenyl]ethoxy]quinazoline]: the mortality at 200 ppm turned out to be 100%.

Still in this data set, the particulars now being: Spodoptera eridania, percent mortality; spray rate 400 ppm; read-out: SAW RESULTS %.
As to `CC(C)(C)c1ccc(CCOc2ncnc3ccc(Cl)cc23)cc1` [Example 174, 6-chloro-4-[2-[4-(t-butyl)phenyl]ethoxy]quinazoline], the mortality at 400 ppm worked out at 0%.

For the molecule `CC(C)(C)c1ccc(CCOc2ncnc3ccc(Br)cc23)cc1` [Example 175, 6-bromo-4-[2-[4-(t-butyl)phenyl]ethoxy]quinazoline], the mortality at 400 ppm was found to be 0%.

The same data set, now with this note: percent mortality; spray rate 400 ppm.
For `CC(C)(C)c1ccc(CCOc2ncnc3ccc(Br)cc23)cc1` [Example 175, 6-bromo-4-[2-[4-(t-butyl)phenyl]ethoxy]quinazoline], the “SAW RESULTS %” value was 0%.

The test system of another data set is Pyricularia oryzae (rice blast).
Assay: not given
The class given is in vivo. The note with it: disease control rating, foliar spray, host rice; 400 ppm (+++ at 100 ppm).
As for `CC(C)(C)c1ccc(CCOc2ncnc3ccc(Cl)cc23)cc1` [Example 174, 6-chloro-4-[2-[4-(t-butyl)phenyl]ethoxy]quinazoline], the “RICE BLAST” value was “++ (++ = 90-100% control at 400 ppm)”.

Turning to `CC(C)(C)c1ccc(CCOc2ncnc3ccc(Br)cc23)cc1` [Example 175, 6-bromo-4-[2-[4-(t-butyl)phenyl]ethoxy]quinazoline], the “RICE BLAST” value is recorded as “++ (++ = 90-100% control at 400 ppm)”.

The next data set has as its system Twospotted spider mites (Tetranychus urticae Koch). Kind of data set: Mite/insect screen, sprayed squash cotyledons (SM). The note with it: Tetranychus urticae, percent mortality; spray rate 200 ppm; read-out: SM RESULTS %. The class given is in vivo. In short, it runs like this:
as §1
In the case of `CC(C)(C)c1ccc(CCOc2ncnc3ccc(Cl)cc23)cc1` [Example 174, 6-chloro-4-[2-[4-(t-butyl)phenyl]ethoxy]quinazoline], the mortality at 200 ppm was determined as 80%.

With `CC(C)(C)c1ccc(CCOc2ncnc3ccc(Br)cc23)cc1` [Example 175, 6-bromo-4-[2-[4-(t-butyl)phenyl]ethoxy]quinazoline], the mortality at 200 ppm was found to be 60%.

Still in this data set, the particulars now being: Tetranychus urticae, percent mortality; spray rate 400 ppm; read-out: SM RESULTS %.
On to `CC(C)(C)c1ccc(CCOc2ncnc3ccc(Cl)cc23)cc1` [Example 174, 6-chloro-4-[2-[4-(t-butyl)phenyl]ethoxy]quinazoline], for which the mortality at 400 ppm is 40%.

As for `CC(C)(C)c1ccc(CCOc2ncnc3ccc(Br)cc23)cc1` [Example 175, 6-bromo-4-[2-[4-(t-butyl)phenyl]ethoxy]quinazoline], the mortality at 400 ppm is 0%.

Still in this data set, the particulars now being: percent mortality; spray rate 400 ppm.
`CC(C)(C)c1ccc(CCOc2ncnc3ccc(Br)cc23)cc1` [Example 175, 6-bromo-4-[2-[4-(t-butyl)phenyl]ethoxy]quinazoline]: the “SM RESULTS %” value is listed as 0%.

The test system of another data set is Erysiphe graminis tritici (powdery mildew). The data set can be described thus: Greenhouse Test 1, foliar spray fungicide screen (POWD MDEW), host wheat. The class given is in vivo. The note with it: disease control rating, 400 ppm (+++ at 100 ppm).
Consider `CC(C)(C)c1ccc(CCOc2ncnc3ccc(Cl)cc23)cc1` [Example 174, 6-chloro-4-[2-[4-(t-butyl)phenyl]ethoxy]quinazoline], for which the “POWD MDEW” value was “+ (+ = 20-89% control at 400 ppm)”.

Turning to `CC(C)(C)c1ccc(CCOc2ncnc3ccc(Br)cc23)cc1` [Example 175, 6-bromo-4-[2-[4-(t-butyl)phenyl]ethoxy]quinazoline], the “POWD MDEW” value is “- (- = 0-19% control at 400 ppm)”.

The test system of a further data set is Puccinia recondita tritici (leaf rust). The data set can be described thus: Greenhouse Test 1, foliar spray fungicide screen (LEAF RUST), host wheat. Conditions: disease control rating, 400 ppm (+++ at 100 ppm). The class given is in vivo.
For `CC(C)(C)c1ccc(CCOc2ncnc3ccc(Cl)cc23)cc1` [Example 174, 6-chloro-4-[2-[4-(t-butyl)phenyl]ethoxy]quinazoline], the “LEAF RUST” value is recorded as “- (- = 0-19% control at 400 ppm)”.

Turning to `CC(C)(C)c1ccc(CCOc2ncnc3ccc(Br)cc23)cc1` [Example 175, 6-bromo-4-[2-[4-(t-butyl)phenyl]ethoxy]quinazoline], the “LEAF RUST” value is “+ (+ = 20-89% control at 400 ppm)”.

For another data set, the system named is Botrytis cinerea (gray mold). Kind of data set: Greenhouse Test 1, foliar spray fungicide screen (GRAY MOLD), host grape berries. Format: in vivo. The note with it: disease control rating, 400 ppm (+++ at 100 ppm).
As to `CC(C)(C)c1ccc(CCOc2ncnc3ccc(Cl)cc23)cc1` [Example 174, 6-chloro-4-[2-[4-(t-butyl)phenyl]ethoxy]quinazoline], the “GRAY MOLD” value is reported as “- (- = 0-19% control at 400 ppm)”.

With `CC(C)(C)c1ccc(CCOc2ncnc3ccc(Br)cc23)cc1` [Example 175, 6-bromo-4-[2-[4-(t-butyl)phenyl]ethoxy]quinazoline], the “GRAY MOLD” value was “- (- = 0-19% control at 400 ppm)”.
